Results from patent publication US11066455B2, “Tmem100 peptides and variants thereof and their use in treating or preventing diseases or conditions” (The Johns Hopkins University, priority 2014, dated 2021).
* marks the point of attachment. Myristoyl = CCCCCCCCCCCCCC(=O)*

Assays:
[1] = molecular target: T1, TRPA1 (Mus musculus, UniProt Q704Y3+Q8BLA8); assay: Calcium imaging of DRG neurons, response to mustard oil (MO); format: cell-based; settings: peptide 200 nM pretreatment; 10 μM MO; IB4-negative DRG neurons
T1 construct: endogenous in cells; host or cells: primary mouse DRG neurons
Procedure: (§1) Calcium imaging assays were performed as previously described (Liu et al., 2009). Cells were loaded with 2 μM fura 2-acetomethoxy ester (Molecular Probes) for 30 min in the dark at room temperature or for 45 minutes at 37° C. for DRG and cell lines, respectively. After washing, cells were imaged at 340 and 380 nm excitation to detect intracellular free calcium under a fluorescent microscope (Nikon Eclipse TE2000-S) and Lambda 10B shutter (Sutter Instrument). The cells were bathed in calcium imaging buffer (pH 7.45, 130 mM NaCl, 3 mM KCl, 2.5 mM CaCl2, 10 mM HEPES, 10 mM glucose, 1.2 mM NaHCO3, with sucrose to increase osmolarity to 290 mOsm). […] Images were processed and analyzed with NIS-Elements BR 2.30 software (Nikon). […] The data was analyzed with the experimenter blinded to the genotypes or constructs transfected.
(§2) DRG from 3 to 4-week old mice were collected in cold DH10 medium (90% DMEM/F-12, 10% FBS, 100 U/ml penicillin, and 100 μg/ml Streptomycin, Gibco) and treated with enzyme solution in HBSS containing collagenase (1.65 mg/mL, Worthington CLS I) and dispase (3.55 mg/mL, GIBCO 17105-041) at 37° C. for 30 minutes. […] This efficiency was determined by mCherry(+) divided by total number of cells in the bright fields. […]

[2] = molecular target: T2, TRPV1 (Mus musculus, UniProt Q704Y3); assay: Calcium imaging of DRG neurons, response to capsaicin (CAP); format: cell-based; settings: peptide 200 nM pretreatment; 100 nM CAP; IB4-negative DRG neurons
T2 construct: calcium imaging data from the T100-Mut-treated (200 nM) DRG neurons; endogenous in cells; host or cells: primary mouse DRG neurons
Procedure: as §1, §2

[3] = test system: MO-induced pain in wild-type mice; assay: Mustard oil injection in hindpaw: acute nocifensive behavior and von Frey mechanical hyperalgesia; format: in vivo, mouse
Procedure: Mice were placed in a transparent plastic box (4.5×5×10 cm) on a metal mesh and acclimatized for 30 minutes prior to testing. Each mouse was tested more than 5 times at a specific force manually, and the threshold was determined by the lowest force needed to elicit responses more than 50% of the time.
Mice were injected intradermally in the hind paw with 6 μL of 0.2% mustard oil (Sigma-Aldrich 377430) with Hamilton needles (80300). The mice were placed in a plexiglass cylinder, and the total time spent licking and flinching was recorded for the first 10 minutes after injection. Thirty and sixty minutes after injection, the mice were assayed with von Frey filaments for mechanical hyperalgesia.
The sequence from the last 28 amino acids of the C-terminus of the Tmem100-3Q mutant protein was synthesized and myristoylated at its N-terminus (myr-[…]-COOH) (SEQ ID NO: 8) by Twentyfirst Century Biochemicals. […] For the calcium imaging assay, the peptides were added to the calcium imaging buffer with a final concentration of 200 nM and incubated for at least […] at room temperature. For the mice behavioral assays, the peptides (5 μL, 2 mM) were injected subcutaneously in the hindpaw at least 30 minutes before testing. For the rat behavior assays, human T100-3Q (h-T100), a palmitoylated cell permeable peptide mutated based on the C terminus of human sequence in Tmem100, was applied. […]

[4] = test system: neuropathic mechanical hypersensitivity in SNL rats; format: in vivo, rat; settings: intrathecal 10 μl; h-T100 10-100 μM, HC-030031 10-200 μM, scrambled 100 μM
Source text: An modified L5 SNL model was produced as described in previously (He et al., 2014; Shechter et al., 2013). Male Sprague-Dawley rats (200-350 g, Harlan, Indianapolis, Ind.) were anesthetized with 2% isoflurane. The left L5 spinal nerve was ligated with a 6-0 silk suture and cut distally. The muscle layer was closed with 4-0 chromic gut suture and the skin closed with metal clips. For intrathecal catheter implantation, a small slit was cut in the atlanto-occipital membrane of rats, into which a saline-filled piece of PE-10 tubing (6-7 cm) was inserted (He et al., 2014). […] Hypersensitivity to punctuate mechanical stimulation was determined with the up-down method by using a series of von Frey filaments (0.38-15.1 g) applied for 4-6 seconds to the test area on the plantar surface of the hindpaw (Chaplan et al., 1994; He et al., 2014). The PWT was determined according to the formula provided by Dixon (Dixon, 1980). […] HC-030031 was purchased from Tocris Bioscience (Bristol, UK). Both drugs were dissolved in 10% dimethylsulfoxide (DMSO), 5% Tween 80 and 85% sterile saline solution. The final working solution which was injected by intrathecal route contained <1% DMSO. The number of animals used in each study was based on experience with similar studies and power analysis calculations. Animals were randomized to the different treatment groups and blinded the experimenter to drug treatment to reduce selection and observation bias. After the experiments were completed, no data point was excluded. STATISTICA 6.0 software (StatSoft, Inc., Tulsa, Okla.) was used to conduct all statistical analyses. The Tukey honestly significant difference (HSD) post-hoc test was used to compare specific data points. Bonferroni correction was applied for multiple comparisons. Two-tailed tests were performed, and data are expressed as mean±SEM; P<0.05 was considered significant in all tests.
The sequence from the last 28 amino acids of the C-terminus of the Tmem100-3Q mutant protein was synthesized and myristoylated at its N-terminus (myr-[…]-COOH) (SEQ ID NO: 8) by Twentyfirst Century Biochemicals. […] For the calcium imaging assay, the peptides were added to the calcium imaging buffer with a final concentration of 200 nM and incubated for at least […] at room temperature. For the mice behavioral assays, the peptides (5 μL, 2 mM) were injected subcutaneously in the hindpaw at least 30 minutes before testing. For the rat behavior assays, human T100-3Q (h-T100), a palmitoylated cell permeable peptide mutated based on the C terminus of human sequence in Tmem100, was applied. The sequence is Palmitoyl-[…]-COOH (SEQ ID NO: 7).

T2 sequence (Q704Y3 whole entry): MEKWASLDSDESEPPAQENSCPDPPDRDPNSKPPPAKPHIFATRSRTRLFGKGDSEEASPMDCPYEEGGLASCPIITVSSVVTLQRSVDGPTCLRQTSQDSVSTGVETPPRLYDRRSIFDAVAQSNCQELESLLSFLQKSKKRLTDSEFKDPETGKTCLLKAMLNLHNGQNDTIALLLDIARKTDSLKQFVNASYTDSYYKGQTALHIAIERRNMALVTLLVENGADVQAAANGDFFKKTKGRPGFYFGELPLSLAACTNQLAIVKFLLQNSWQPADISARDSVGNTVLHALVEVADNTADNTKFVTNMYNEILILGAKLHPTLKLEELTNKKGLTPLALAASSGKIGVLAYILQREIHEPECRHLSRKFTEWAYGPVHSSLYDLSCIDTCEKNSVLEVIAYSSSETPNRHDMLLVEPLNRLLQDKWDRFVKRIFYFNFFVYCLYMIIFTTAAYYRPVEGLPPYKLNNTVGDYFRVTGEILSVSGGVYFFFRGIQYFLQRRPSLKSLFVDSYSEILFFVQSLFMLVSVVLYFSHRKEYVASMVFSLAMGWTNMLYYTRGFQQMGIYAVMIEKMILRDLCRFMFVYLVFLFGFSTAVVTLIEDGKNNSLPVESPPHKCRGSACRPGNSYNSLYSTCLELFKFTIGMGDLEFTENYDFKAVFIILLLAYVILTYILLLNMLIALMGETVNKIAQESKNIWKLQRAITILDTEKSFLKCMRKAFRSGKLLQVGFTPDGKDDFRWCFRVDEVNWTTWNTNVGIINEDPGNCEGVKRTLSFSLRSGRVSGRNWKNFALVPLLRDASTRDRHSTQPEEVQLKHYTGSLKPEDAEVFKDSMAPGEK
T1 sequence (Q8BLA8 whole entry): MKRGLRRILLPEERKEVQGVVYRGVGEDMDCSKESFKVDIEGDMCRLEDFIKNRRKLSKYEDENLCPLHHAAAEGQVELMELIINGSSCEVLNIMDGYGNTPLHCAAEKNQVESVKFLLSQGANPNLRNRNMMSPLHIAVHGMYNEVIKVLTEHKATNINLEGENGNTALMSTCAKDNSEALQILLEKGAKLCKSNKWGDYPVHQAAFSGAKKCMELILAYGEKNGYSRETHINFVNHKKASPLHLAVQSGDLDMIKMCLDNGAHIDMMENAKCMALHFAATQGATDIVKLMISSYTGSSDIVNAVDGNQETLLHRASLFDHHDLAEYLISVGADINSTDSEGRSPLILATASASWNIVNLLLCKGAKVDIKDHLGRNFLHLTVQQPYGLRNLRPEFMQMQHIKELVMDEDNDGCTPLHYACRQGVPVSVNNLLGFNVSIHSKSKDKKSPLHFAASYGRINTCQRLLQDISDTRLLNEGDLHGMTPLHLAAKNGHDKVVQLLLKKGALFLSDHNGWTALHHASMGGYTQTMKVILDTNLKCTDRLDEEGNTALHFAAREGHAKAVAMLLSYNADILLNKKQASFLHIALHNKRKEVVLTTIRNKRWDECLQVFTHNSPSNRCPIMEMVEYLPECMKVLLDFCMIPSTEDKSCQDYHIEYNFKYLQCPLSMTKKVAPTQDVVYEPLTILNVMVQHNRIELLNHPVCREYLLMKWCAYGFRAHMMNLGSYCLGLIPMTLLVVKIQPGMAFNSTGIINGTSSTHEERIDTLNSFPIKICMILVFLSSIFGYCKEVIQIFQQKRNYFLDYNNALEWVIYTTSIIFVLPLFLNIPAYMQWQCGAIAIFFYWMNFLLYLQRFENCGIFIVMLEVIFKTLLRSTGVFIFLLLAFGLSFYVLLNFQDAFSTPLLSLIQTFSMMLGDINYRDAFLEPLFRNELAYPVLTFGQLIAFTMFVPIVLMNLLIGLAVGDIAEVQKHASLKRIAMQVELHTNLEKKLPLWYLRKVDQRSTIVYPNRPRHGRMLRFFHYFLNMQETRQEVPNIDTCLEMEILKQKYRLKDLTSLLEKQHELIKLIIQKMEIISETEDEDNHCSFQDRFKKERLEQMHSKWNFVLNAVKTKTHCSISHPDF
T1 sequence (Q704Y3 whole entry): as the sequence (Q704Y3 whole entry) above

myr-QRVLEQVLQNWSRRANVKQAQKFQVKCT-COOH (Myristoyl-QRVLEQVLQNWSRRANVKQAQKFQVKCT-OH; SMILES CCCCCCCCCCCCCC(=O)N[C@@H](CCC(N)=O)C(=O)N[C@@H](CCCNC(=N)N)C(=O)N[C@H](C(=O)N[C@@H](CC(C)C)C(=O)N[C@@H](CCC(=O)O)C(=O)N[C@@H](CCC(N)=O)C(=O)N[C@H](C(=O)N[C@@H](CC(C)C)C(=O)N[C@@H](CCC(N)=O)C(=O)N[C@@H](CC(N)=O)C(=O)N[C@@H](Cc1c[nH]c2ccccc12)C(=O)N[C@@H](CO)C(=O)N[C@@H](CCCNC(=N)N)C(=O)N[C@@H](CCCNC(=N)N)C(=O)N[C@@H](C)C(=O)N[C@@H](CC(N)=O)C(=O)N[C@H](C(=O)N[C@@H](CCCCN)C(=O)N[C@@H](CCC(N)=O)C(=O)N[C@@H](C)C(=O)N[C@@H](CCC(N)=O)C(=O)N[C@@H](CCCCN)C(=O)N[C@@H](Cc1ccccc1)C(=O)N[C@@H](CCC(N)=O)C(=O)N[C@H](C(=O)N[C@@H](CCCCN)C(=O)N[C@@H](CS)C(=O)N[C@H](C(=O)O)[C@@H](C)O)C(C)C)C(C)C)C(C)C)C(C)C) [scrambled]
percentage of DRG neurons responding to MO [1]: 12±1.3%
percentage of DRG neurons responding to CAP [2]: 16±1.3%
MO-induced mechanical hyperalgesia (mechanical threshold) ([3]; peptide 5 μl of 2 mM pre-treatment): 0.1 ± 0.03 g
MO-induced acute nocifensive behavior (time) ([3]; peptide 5 μl of 2 mM pre-treatment in hindpaw): 80 ± 9 s
ipsilateral paw withdrawal threshold (PWT) vs pre-drug [4]: no effect
